Assay results: paper PMC12238850, “Molecular determinants for recognition of serotonylated chromatin” (Nucleic Acids Research, 2025)
Where two headings read alike, the source gives them in different places.

Target: T1, TAF3 W894L (GST-tagged PHD) (Mus musculus, UniProt Q5HZG4, W894L)
T1 construct: Mus musculus Taf3-PHD domain (residues 857–924); made in house; host or cells: E. coli BL21(DE3)
T1 sequence (Q5HZG4 857-924 W894L): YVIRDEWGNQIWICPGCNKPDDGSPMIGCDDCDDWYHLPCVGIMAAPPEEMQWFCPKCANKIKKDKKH
Test: ITC of GST-tagged Taf3-PHD W894L
Format: binding
Text: The coding sequences of Mus musculus Taf3-PHD domain (residues 857–924) and Homosapiens PHF2 (1–66), PHF8 (37–102), and BPTF(2) (2865–2921) were cloned into the pGEX2T-derived vector, pRP265NB, for bacterial expression of GST-tagged proteins. Note that the PHD fingers of M. musculus Taf3 and H. sapiens TAF3 differ in a single amino acid. A901 in mouse corresponds to T899 in human. Here, amino acid numbering corresponds to mouse Taf3 isoform 1 with UniProt ID: Q5HZG4, accessible at https://www.uniprot.org/uniprotkb/Q5HZG4/entry. Single or double mutations were introduced by mutagenesis polymerase chain reaction and validated by Sanger sequencing. A single colony of freshly transformed BL21(DE3) Escherichia coli bacteria with the corresponding construct was grown in Luria broth (LB) medium supplemented with 50 μg/ml ampicillin until an OD600 of 0.7. […]
ITC experiments were performed at 20°C with a MicroCal VP-ITC microcalorimeter (Malvern) by sequential injection of 10 μl at 300 μM histone peptide during 20 s into the sample cell containing 30 or 15 μM of GST-Taf3 (wild type or mutant) or GST-BPTF, GST-PHF2, and GST-PHF8 PHDs in ITC buffer (100 mM NaCl, 20 mM Tris–HCl, pH 7.5). […] ITC data were subsequently analysed and fitted with the one-site binding model in the MicroCal ITC Origin Analysis software 7.0 (Table 1, Figs 3B and 5A, Supplementary Table S3, and Supplementary Fig. S10). […]

Kd (ITC, 20°C, 100 mM NaCl, 20 mM Tris–HCl, pH 7.5, one-site model, ± = standard error of fit, read-out: K D) | SMILES | Kd
 | C[C@H](N)C(=O)N[C@@H](CCCNC(=N)N)C(=O)N[C@H](C(=O)N[C@@H](CCCC[N+](C)(C)C)C(=O)N[C@@H](CCC(=O)NCCc1c[nH]c2ccc(O)cc12)C(=O)N[C@H](C(=O)N[C@@H](C)C(=O)N[C@@H](CCCNC(=N)N)C(=O)N[C@@H](CCCCN)C(=O)N[C@@H](CO)C(=O)N[C@H](C(=O)NCC(N)=O)[C@@H](C)O)[C@@H](C)O)[C@@H](C)O [H3K4me3Q5ser] | 324 ± 18 nM
595 ± 35 nM | C[C@H](N)C(=O)N[C@@H](CCCNC(=N)N)C(=O)N[C@H](C(=O)N[C@@H](CCCC[N+](C)(C)C)C(=O)N[C@@H](CCC(N)=O)C(=O)N[C@H](C(=O)N[C@@H](C)C(=O)N[C@@H](CCCNC(=N)N)C(=O)N[C@@H](CCCCN)C(=O)N[C@@H](CO)C(=O)N[C@H](C(=O)NCC(N)=O)[C@@H](C)O)[C@@H](C)O)[C@@H](C)O [H3K4me3] | 
